# Reference: ChEMBL document CHEMBL1201862, “PubChem BioAssay data set” (2004)
# The source made the active and inactive calls.
# Tests used:
# [1] = target: Tyrosine-protein kinase Lyn (Homo sapiens, UniProt P07948); format: functional;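 also: lyn as one member of a kinase panel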
# [2] = target: High affinity nerve growth factor receptor (Homo sapiens, UniProt P04629); format: functional;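 also: NTRK1 tested as one member of a kinome-wide profiling panel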
# [3] = target: Serine/threonine-protein kinase PLK3 (Homo sapiens, UniProt Q9H4B4); format: functional
# [4] = target: Cyclin-dependent kinase 19 (Homo sapiens, UniProt Q9BWU1); test: Navigating the Kinome. Panel member name: CDC2L6; format: functional
# [5] = target: Mitogen-activated protein kinase 14 (Homo sapiens, UniProt Q16539); format: functional;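 also: part of a kinome-wide panel, MAPK14 entry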
# [6] = target: Tyrosine-protein kinase Blk (Homo sapiens, UniProt P51451); format: functional;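 also: obtained as one member of a kinome-wide kinase assay panel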
# [7] = target: Dual specificity tyrosine-phosphorylation-regulated kinase 4 (Homo sapiens, UniProt Q9NR20); format: functional
# [8] = target: Protein kinase C iota type (Homo sapiens, UniProt P41743); format: functional;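 also: measured within a kinome-wide kinase panel, PRKCI as panel member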
# [9] = target: G protein-coupled receptor kinase 5 (Homo sapiens, UniProt P34947); test: Navigating the Kinome. Panel member name: GPRK5; format: functional
# [10] = target: Tyrosine-protein kinase JAK3 (Homo sapiens, UniProt P52333); format: functional
# [11] = target: Vascular endothelial growth factor receptor 3 (Homo sapiens, UniProt P35916); format: functional;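 also: value from a kinome-wide profiling panel, with FLT4 as the panel member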
# [12] = target: MAP kinase-activated protein kinase 5 (Homo sapiens, UniProt Q8IW41); format: functional;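 also: measured as one member of a kinome panel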
# [13] = target: Serine/threonine-protein kinase PAK 1 (Homo sapiens, UniProt Q13153); format: functional
# [14] = target: Testis-specific serine/threonine-protein kinase 1 (Homo sapiens, UniProt Q9BXA7); format: functional
# [15] = target: Serine/threonine-protein kinase TAO1 (Homo sapiens, UniProt Q7L7X3); format: functional
# [16] = target: Dual specificity tyrosine-phosphorylation-regulated kinase 1B (Homo sapiens, UniProt Q9Y463); test: Navigating the Kinome. Panel member name: DYRK1B; format: functional
# [17] = target: Hepatocyte growth factor receptor (Homo sapiens, UniProt P08581); format: functional;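 also: kinase panel profiling across the kinome, with MET as the panel member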
# [18] = target: Tyrosine-protein kinase receptor UFO (Homo sapiens, UniProt P30530); format: functional
# [19] = target: Serine/threonine-protein kinase PLK1 (Homo sapiens, UniProt P53350); format: functional;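 also: PLK1 measured as one member of a kinome-wide profiling panel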
# [20] = target: BDNF/NT-3 growth factors receptor (Homo sapiens, UniProt Q16620); format: functional;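 also: NTRK2 measured as one member of a broad kinome-wide kinase profiling panel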
# [21] = target: Homeodomain-interacting protein kinase 4 (Homo sapiens, UniProt Q8NE63); format: functional
# [22] = target: Tyrosine-protein kinase SYK (Homo sapiens, UniProt P43405); format: functional
# [23] = target: Dual specificity tyrosine-phosphorylation-regulated kinase 3 (Homo sapiens, UniProt O43781); format: functional;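 also: measured as one member of a broad kinase panel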
# [24] = target: T1, Serine/threonine-protein phosphatase (Candida dubliniensis (strain CD36 / CBS 7987 / NCPF 3949 / NRRLY-17841) (Yeast), UniProt B9W6M3); test: calcineurin pathway inhibitors in yeast reporter, dose response, S. cerevisiae, CDRE-lacZ, luminescence, secondary (AID 2388); format: functional, cell-based;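 also: yeast reporter cells carrying a calcineurin-responsive lacZ construct stimulated with calcium chloride; luminescent beta-galactosidase reporter signal in whole cells rather than isolated phosphatase activity; potency for inhibition where a drop in reporter signal means calcineurin blockade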
# T1 sequence (B9W6M3 whole entry): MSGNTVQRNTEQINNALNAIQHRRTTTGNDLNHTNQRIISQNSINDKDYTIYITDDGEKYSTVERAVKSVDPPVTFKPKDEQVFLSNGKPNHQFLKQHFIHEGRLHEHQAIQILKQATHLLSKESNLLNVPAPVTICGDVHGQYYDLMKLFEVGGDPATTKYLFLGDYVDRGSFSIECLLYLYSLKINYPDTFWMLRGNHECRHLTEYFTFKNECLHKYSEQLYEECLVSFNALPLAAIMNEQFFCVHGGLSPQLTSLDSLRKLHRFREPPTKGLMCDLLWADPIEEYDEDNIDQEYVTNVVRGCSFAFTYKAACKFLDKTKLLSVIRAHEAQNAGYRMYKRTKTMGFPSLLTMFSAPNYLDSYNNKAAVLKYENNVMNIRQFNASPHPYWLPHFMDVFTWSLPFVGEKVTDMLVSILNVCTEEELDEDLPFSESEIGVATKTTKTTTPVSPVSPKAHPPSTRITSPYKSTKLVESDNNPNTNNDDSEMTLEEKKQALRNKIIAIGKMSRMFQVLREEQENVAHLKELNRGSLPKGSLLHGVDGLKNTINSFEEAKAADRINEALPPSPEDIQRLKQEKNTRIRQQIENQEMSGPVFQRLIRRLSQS
# [25] = target: T2, Replicative DNA helicase DnaB (Mycobacterium tuberculosis, UniProt P9WMR3); test: DnaB intein splicing inhibitors, dose response, biochemical, cell-free fluorescence (AID 449749); format: functional
# T2 sequence (P9WMR3 whole entry): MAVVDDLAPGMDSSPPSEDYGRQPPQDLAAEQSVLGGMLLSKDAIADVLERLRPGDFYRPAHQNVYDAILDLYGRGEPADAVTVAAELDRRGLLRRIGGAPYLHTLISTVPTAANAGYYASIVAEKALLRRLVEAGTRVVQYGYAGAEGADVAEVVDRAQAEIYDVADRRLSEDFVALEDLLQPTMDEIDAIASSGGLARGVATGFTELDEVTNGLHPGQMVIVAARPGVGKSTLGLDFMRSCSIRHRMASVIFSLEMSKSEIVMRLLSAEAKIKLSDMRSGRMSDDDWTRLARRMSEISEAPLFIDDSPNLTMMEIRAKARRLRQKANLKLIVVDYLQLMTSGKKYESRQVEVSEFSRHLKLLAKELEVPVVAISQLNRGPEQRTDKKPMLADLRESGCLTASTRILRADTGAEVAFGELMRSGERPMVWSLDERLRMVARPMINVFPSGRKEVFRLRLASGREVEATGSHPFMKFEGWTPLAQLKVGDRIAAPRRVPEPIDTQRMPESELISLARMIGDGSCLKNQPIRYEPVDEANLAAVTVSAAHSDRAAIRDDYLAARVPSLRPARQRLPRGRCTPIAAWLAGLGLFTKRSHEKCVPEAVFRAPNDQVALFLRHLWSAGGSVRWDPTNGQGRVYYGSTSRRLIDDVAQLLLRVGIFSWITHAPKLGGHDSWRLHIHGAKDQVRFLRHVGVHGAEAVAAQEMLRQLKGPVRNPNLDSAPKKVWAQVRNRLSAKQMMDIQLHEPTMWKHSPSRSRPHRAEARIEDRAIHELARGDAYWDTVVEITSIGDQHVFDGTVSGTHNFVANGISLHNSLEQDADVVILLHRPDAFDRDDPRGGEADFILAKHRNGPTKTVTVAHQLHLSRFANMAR
# Sequence of Dual specificity tyrosine-phosphorylation-regulated kinase 4 (Q9NR20 whole entry): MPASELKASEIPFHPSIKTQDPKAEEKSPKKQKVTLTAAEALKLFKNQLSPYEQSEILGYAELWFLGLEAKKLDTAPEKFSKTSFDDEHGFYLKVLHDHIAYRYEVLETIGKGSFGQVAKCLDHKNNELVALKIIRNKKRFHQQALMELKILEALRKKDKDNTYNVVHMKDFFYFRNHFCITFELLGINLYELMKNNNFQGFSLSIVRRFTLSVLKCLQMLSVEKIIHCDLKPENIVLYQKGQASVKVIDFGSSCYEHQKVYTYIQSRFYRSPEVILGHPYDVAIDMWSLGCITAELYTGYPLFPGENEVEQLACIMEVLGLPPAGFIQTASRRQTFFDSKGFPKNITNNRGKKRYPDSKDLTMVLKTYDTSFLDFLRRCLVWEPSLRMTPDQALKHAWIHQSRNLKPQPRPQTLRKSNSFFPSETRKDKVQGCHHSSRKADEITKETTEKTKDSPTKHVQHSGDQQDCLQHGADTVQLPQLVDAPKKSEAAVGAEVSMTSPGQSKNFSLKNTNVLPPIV
# Sequence of MAP kinase-activated protein kinase 5 (Q8IW41 whole entry): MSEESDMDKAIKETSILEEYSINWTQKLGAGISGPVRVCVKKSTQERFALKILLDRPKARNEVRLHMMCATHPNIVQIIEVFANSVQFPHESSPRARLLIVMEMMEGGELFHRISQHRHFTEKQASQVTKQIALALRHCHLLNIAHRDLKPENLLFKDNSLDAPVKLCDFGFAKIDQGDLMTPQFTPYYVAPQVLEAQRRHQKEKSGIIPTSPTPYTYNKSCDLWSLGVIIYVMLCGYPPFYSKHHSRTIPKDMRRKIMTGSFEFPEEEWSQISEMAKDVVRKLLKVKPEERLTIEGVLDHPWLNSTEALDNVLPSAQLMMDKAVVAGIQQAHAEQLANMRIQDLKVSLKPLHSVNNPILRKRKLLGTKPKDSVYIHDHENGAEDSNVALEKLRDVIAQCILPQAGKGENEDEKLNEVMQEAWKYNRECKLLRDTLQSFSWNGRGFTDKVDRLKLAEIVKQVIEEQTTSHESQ
# Sequence of Dual specificity tyrosine-phosphorylation-regulated kinase 3 (O43781 whole entry): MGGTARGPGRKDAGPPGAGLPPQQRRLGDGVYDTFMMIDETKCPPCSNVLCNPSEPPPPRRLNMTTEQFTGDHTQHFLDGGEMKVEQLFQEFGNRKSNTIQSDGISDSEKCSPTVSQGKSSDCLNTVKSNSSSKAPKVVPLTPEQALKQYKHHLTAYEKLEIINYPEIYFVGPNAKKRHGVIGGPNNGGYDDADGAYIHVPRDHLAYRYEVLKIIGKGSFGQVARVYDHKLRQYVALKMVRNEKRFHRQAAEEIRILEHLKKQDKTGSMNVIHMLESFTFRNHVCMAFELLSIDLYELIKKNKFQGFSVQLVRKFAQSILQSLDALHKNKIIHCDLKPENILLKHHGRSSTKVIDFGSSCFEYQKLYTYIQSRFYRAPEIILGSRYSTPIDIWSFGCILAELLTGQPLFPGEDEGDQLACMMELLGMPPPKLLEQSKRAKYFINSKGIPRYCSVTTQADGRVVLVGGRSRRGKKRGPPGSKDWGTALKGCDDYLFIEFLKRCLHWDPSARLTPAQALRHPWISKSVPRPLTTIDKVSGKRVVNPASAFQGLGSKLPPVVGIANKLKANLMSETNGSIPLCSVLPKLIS
# Sequence of Tyrosine-protein kinase Lyn (P07948 whole entry): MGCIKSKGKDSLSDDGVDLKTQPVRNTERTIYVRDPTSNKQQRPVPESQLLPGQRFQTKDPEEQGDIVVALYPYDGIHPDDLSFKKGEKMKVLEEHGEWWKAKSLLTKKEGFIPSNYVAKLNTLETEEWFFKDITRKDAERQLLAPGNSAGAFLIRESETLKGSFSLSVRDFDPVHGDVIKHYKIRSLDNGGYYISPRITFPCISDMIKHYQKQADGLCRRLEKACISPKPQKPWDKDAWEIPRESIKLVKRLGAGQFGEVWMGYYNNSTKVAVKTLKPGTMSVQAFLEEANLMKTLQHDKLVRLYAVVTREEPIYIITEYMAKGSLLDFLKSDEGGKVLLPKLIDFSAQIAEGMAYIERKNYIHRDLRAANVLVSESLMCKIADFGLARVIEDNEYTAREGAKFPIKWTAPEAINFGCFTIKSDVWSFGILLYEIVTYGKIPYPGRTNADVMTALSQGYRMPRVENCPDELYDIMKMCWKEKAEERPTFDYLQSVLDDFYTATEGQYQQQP
# Sequence of Cyclin-dependent kinase 19 (Q9BWU1 whole entry): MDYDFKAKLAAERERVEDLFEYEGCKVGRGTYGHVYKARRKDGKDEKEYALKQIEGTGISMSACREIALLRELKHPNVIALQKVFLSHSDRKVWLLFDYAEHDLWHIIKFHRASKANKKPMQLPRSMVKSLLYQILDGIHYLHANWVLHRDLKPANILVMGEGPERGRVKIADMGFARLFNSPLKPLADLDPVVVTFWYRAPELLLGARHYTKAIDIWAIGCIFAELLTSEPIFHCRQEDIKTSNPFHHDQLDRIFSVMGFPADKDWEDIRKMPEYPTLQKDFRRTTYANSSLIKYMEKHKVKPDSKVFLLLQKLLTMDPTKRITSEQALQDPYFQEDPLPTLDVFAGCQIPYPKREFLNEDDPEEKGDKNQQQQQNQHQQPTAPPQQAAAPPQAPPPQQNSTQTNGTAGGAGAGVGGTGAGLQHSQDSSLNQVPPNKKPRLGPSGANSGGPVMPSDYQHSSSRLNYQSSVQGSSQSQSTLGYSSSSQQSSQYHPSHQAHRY
# Sequence of Hepatocyte growth factor receptor (P08581 whole entry): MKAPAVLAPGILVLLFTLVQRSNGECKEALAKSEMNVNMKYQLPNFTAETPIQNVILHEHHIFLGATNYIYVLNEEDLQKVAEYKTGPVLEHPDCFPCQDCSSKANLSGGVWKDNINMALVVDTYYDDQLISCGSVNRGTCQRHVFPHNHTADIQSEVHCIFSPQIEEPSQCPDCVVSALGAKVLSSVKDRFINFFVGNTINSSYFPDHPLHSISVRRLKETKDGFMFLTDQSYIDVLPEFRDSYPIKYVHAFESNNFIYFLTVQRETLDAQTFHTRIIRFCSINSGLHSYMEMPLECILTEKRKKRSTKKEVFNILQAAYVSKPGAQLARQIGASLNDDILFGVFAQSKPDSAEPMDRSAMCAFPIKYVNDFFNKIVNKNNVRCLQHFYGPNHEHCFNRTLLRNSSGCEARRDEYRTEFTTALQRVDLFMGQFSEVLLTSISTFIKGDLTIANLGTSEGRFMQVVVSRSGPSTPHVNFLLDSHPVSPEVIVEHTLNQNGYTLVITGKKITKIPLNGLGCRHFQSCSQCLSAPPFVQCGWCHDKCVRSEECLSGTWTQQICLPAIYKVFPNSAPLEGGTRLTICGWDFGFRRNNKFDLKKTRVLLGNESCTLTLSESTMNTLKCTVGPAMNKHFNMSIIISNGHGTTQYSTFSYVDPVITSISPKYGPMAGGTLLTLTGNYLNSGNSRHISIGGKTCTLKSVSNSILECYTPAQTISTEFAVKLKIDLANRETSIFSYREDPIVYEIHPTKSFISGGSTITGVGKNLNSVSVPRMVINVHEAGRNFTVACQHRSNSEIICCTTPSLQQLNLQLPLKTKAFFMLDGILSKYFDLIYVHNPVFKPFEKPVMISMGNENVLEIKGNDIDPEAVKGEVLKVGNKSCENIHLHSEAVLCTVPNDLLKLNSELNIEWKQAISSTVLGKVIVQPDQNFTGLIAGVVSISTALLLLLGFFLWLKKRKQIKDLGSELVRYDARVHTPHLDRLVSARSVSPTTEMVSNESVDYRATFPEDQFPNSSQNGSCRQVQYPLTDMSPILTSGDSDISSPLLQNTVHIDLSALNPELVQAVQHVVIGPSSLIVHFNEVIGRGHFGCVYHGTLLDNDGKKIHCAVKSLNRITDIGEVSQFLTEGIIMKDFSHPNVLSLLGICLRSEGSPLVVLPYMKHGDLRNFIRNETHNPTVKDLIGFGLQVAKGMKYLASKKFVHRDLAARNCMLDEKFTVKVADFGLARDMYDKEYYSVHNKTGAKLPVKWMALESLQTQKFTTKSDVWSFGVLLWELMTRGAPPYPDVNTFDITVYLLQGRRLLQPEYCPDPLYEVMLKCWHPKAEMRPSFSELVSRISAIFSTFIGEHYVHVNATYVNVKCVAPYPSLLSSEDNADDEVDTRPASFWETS
# Sequence of Dual specificity tyrosine-phosphorylation-regulated kinase 1B (Q9Y463 whole entry): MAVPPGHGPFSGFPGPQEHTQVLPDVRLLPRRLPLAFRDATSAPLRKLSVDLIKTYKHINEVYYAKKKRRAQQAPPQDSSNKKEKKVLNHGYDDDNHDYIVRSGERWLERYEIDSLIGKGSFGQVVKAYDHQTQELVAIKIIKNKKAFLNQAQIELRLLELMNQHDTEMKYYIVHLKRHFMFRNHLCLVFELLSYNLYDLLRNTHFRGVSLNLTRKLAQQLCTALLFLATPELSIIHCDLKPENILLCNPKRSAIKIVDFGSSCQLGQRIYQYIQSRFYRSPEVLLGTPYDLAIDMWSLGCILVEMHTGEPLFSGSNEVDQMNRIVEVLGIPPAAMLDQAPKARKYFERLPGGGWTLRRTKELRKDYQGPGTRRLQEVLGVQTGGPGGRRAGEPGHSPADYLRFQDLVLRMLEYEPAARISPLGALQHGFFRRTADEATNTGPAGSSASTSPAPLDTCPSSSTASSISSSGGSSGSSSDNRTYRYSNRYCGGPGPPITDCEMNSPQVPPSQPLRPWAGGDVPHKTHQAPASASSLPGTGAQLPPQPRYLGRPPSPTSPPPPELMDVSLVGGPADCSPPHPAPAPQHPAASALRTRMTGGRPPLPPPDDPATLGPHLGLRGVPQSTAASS
# Sequence of Testis-specific serine/threonine-protein kinase 1 (Q9BXA7 whole entry): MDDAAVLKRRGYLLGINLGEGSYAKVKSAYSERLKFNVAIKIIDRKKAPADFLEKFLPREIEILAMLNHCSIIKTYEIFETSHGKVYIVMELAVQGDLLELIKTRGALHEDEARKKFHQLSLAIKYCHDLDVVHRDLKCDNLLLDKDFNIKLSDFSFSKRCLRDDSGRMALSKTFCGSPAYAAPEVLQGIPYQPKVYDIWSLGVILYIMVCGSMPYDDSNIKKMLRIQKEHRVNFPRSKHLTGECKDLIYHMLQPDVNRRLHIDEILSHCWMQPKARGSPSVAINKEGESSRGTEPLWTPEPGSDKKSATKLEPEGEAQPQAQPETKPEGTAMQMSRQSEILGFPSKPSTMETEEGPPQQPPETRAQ
smiles,measurement,setting,value
NCCCn1cc(-c2cc(-c3cc4ccccc4s3)c3[nH]ncc3c2)c2nc(N)ncc21,Ki,[1],> 1580 nM (inactive)
same,Ki,[2],> 2510 nM (inactive)
same,Ki,[3],> 7940 nM (inactive)
same,Ki,[4],398 nM (active)
same,Ki,[5],> 3980 nM (inactive)
same,Ki,[6],> 1580 nM (inactive)
same,Ki,[7],794 nM (active)
same,Ki,[8],3.16 nM (active)
same,Ki,[9],> 3980 nM (inactive)
same,Ki,[10],> 3980 nM (inactive)
same,Ki,[11],1000 nM (active)
same,Ki,[12],200 nM (active)
same,Ki,[13],63.1 nM (active)
same,Ki,[14],251 nM (active)
same,Ki,[15],> 5010 nM (inactive)
same,Ki,[16],631 nM (active)
same,Ki,[17],> 2000 nM (inactive)
same,Ki,[18],501 nM (active)
same,Ki,[19],> 7940 nM (inactive)
same,Ki,[20],> 3980 nM (inactive)
same,Ki,[21],501 nM (active)
same,Ki,[22],100 nM (active)
same,Ki,[23],100 nM (active)
CCCn1nc([N+](=O)[O-])c(C(C#N)c2nc3ccccc3s2)c(Cl)c1=O (stereo not given),EC50,[24],> 180000 nM (inactive)
same,AC50,[25],4720 nM (active)
